Assay results taken from patent publication US6686350B1, “Cell adhesion inhibitors” (Biogen, Inc., priority 1996, dated 2004).

molecular target: T1, VLA-4 (Homo sapiens, UniProt P05556+P13612); test: VLA-4 direct binding assay (VCAM-IgG alkaline phosphatase conjugate binding to Jurkat cells); conditions: Table 1, Structure-Activity; assay and unit inferred; read-out: Act
T1 construct: endogenous in cells; host or cells: Jurkat cells
Description: A direct binding assay may also be employed to quantitate the inhibitory activity of the compounds of this invention. (“DBA”) In direct binding assays, for example, a VCAM-IgG fusion protein containing the first two immunoglobulin domains of VCAM (D1D2) attached above the hinge region of an IgG1 molecule (“VCAM 2D-IgG”), is conjugated to a marker enzyme, such as alkaline phosphatase (“AP”). The synthesis of this VCAM-IgG fusion is described in PCT publication WO 90/13300, the disclosure of which is herein incorporated by reference. The conjugation of that fusion to a marker enzyme can be achieved by cross-linking methods well-known in the art.
The VCAM-IgG enzyme conjugate is then placed in the wells of a multi-well filtration plate, such as that contained in the Millipore Multiscreen Assay System (Millipore Corp., Bedford, Mass.). Varying concentrations of the test inhibitory compound are then added to the wells followed by addition of VLA-4-expressing cells. The cells, compound and VCAM-IgG enzyme conjugate are mixed together and allowed to incubate at room temperature.
Following incubation, the wells are vacuum drained, leaving behind the cells and any bound VCAM. Quantitation of bound VCAM is determined by adding an appropriate calorimetric substrate for the enzyme conjugated to VCAM-IgG and determining the amount of reaction product. Decreased reaction product indicates increased binding inhibitory activity. The protocol is described more specifically below:
1. Block a 96 well Millipore Multiscreen Assay System filtration plate^1 with 200:l/well of blocking buffer (1×Phosphate Buffered Saline, 0.1%Tween 20, 1%BSA) for at least 1 hour at room temperature.
2. Drain the plate with the vacuum manifold, and wash with 200 μl/well of assay buffer (Tris Buffered Saline, 0.1% BSA, 2 mM glucose, 10 mM HEPES, pH 7.5) draining the plate in between. Repeat twice. Then blot the plate bottom on paper to remove excess buffer.
3. Prepare a 4 μg/ml VCAMIg-AP solution (Alkaline phosphatase coupled to VCAMIg) in assay buffer and filter with a 0.2:low protein binding syringe filter (Gelman Sciences #4454). From this stock, prepare a 0.4 μg/ml working solution of VCAMIg-AP in assay buffer. Add 25:l of 0.4 μg/ml VCAMIg-AP to every well.
5. Prepare dilutions of compounds to be tested in assay buffer. Concentrations should be 4× the desired final concentration and run in triplicate. Add 25 μl of the compound dilutions to designated wells.
7. Jurkat cells are centrifuged to remove cell culture media and washed once in assay buffer. Resuspend the washed Jurkat cells to a concentration of 8×10^6/ml in assay buffer containing 2 mM MnCl2. Pipeting the mixture up and down to ensure a uniform cell suspension. Add 50:l of cell suspension to each well except the NSB wells.
8. Gently tap the sides of the plate to mix well contents. Incubate the plate for 60 minutes at room temperature (RT).
9. Place the plate on the vacuum manifold to drain the well contents. Wash twice with 100 μl/well of wash buffer (assay buffer containing 1 mM MnCl2). Drain the plate and blot on paper towels.
10. Add 10 mg/ml of 4-Nitro phenyl phosphate to Substrate buffer (0.1M glycine, 1 mM ZnCl2, 1 mM MgCl2, pH 10.5). Add 100 μl/well and incubate for exactly 30 minutes at RT.
11. To stop the reaction, add 100 μl/well of 3N NaOH.
12. Read the 96-well plate in a Molecular Devices ELISA platereader at 405 nm. Analyze data with SoftMax software.

T1 sequence (P13612 34-1032): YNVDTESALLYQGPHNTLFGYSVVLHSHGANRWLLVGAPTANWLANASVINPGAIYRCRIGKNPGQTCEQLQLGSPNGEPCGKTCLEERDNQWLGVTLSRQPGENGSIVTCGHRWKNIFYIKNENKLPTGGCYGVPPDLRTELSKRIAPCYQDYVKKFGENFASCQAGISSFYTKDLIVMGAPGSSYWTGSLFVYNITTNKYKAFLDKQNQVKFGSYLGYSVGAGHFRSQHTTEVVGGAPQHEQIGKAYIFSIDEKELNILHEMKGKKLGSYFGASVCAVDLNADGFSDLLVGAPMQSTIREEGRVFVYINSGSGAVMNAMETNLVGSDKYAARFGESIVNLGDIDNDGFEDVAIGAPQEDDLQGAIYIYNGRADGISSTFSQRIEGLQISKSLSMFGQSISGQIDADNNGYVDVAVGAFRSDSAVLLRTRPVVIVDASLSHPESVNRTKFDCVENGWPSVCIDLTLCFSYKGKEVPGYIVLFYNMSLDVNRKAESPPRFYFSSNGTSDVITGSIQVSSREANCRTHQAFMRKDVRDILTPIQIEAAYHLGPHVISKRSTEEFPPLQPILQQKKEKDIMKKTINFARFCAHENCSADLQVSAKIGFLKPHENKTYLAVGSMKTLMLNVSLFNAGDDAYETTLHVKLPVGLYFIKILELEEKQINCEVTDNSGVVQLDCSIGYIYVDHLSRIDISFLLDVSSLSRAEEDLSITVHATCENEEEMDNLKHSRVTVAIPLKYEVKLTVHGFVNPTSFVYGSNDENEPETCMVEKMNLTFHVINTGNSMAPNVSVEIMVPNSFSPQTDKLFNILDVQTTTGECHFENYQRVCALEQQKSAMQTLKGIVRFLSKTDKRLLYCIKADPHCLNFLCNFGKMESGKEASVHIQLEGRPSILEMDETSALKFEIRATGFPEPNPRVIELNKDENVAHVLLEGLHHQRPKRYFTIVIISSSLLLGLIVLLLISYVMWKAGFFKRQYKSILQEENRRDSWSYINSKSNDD
T1 sequence (P05556 21-798): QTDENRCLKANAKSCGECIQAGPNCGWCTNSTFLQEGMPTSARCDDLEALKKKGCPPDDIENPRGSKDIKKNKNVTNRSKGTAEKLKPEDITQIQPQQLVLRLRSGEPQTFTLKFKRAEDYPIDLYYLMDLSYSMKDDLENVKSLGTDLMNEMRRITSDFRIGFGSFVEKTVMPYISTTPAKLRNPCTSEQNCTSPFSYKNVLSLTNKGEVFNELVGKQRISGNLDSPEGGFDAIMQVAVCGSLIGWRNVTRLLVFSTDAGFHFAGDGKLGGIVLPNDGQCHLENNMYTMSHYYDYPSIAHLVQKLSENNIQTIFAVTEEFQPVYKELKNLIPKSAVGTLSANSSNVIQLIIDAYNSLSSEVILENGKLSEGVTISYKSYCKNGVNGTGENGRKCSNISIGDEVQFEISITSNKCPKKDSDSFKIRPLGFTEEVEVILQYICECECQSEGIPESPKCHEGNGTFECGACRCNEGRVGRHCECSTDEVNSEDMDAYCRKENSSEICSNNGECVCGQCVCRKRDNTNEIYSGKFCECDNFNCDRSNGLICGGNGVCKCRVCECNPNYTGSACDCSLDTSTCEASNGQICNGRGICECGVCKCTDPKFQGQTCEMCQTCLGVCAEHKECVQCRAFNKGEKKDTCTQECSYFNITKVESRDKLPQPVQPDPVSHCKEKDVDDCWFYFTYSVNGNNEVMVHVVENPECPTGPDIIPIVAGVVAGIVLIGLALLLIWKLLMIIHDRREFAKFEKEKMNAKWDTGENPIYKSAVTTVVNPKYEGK

| SMILES | IC50 |
| --- | --- |
| COCC(C)N1C(=O)CN(CCC(=O)O)C(=O)c2cc(NC(=O)Cc3ccc(NC(=O)Nc4ccccc4C)cc3)ccc21 (centres unmarked) [BX54] | 128 nM |
| Cc1ccccc1NC(=O)Nc1ccc(CC(=O)Nc2ccc3c(c2)C(=O)N(CCC(=O)O)CC(=O)N3CC2CCCO2)cc1 (centres unmarked) [BX55] | 120 nM |
| COC(=O)CN1C(=O)CN(CCC(=O)O)C(=O)c2cc(NC(=O)Cc3ccc(NC(=O)Nc4ccccc4C)cc3)ccc21 [BX57] | 113 nM |
| Cc1ccccc1NC(=O)Nc1ccc(CC(=O)Nc2ccc3c(c2)C(=O)N(CCC(=O)O)CC(=O)N3Cc2ccccc2)cc1 [BX58] | 116 nM |
| CCC(CC(=O)O)N1CC(=O)N(C)c2ccc(NC(=O)Cc3ccc(NC(=O)Nc4ccccc4C)cc3)cc2C1=O (centres unmarked) [BX60] | 103 nM |
| COCCN1CC(=O)N(CCC(=O)O)Cc2cc(NC(=O)Cc3ccc(NC(=O)Nc4ccccc4C)cc3)ccc21 [BX61] | 99.3 nM |
| Cc1ccccc1NC(=O)Nc1ccc(CC(=O)Nc2ccc3c(c2)C(=O)N(C(CC(=O)O)C(=O)O)CC(=O)N3CCC(=O)O)cc1 (centres unmarked) [BX62] | 95 nM |
| COC(=O)C(C(C)C)N1C(=O)CN(CCC(=O)O)C(=O)c2cc(NC(=O)Cc3ccc(NC(=O)Nc4ccccc4C)cc3)ccc21 (centres unmarked) [BX63] | 75 nM |
| CN1C(=O)CN(CCC(=O)O)C(=O)c2cc(NC(=O)Cc3ccc(NC(=O)c4c[nH]c5ccccc45)cc3)ccc21 [BX64] | 24 nM |
| CN1Cc2ccc(NC(=O)Cc3ccc(NC(=O)Nc4ccccc4Br)cc3)cc2CN(CC(=O)O)C1=O [BX65] | 65 nM |
| Cc1ccccc1NC(=O)Nc1ccc(CC(=O)Nc2ccc3c(c2)C(=O)N(C(C)CC(=O)O)CC(=O)N3C)cc1 (centres unmarked) [BX67] | 62.5 nM |
| COc1ccc(CCN2CC(=O)N(CCC(=O)O)Cc3cc(NC(=O)Cc4ccc(NC(=O)Nc5ccccc5C)cc4)ccc32)cc1OC [BX68] | 35 nM |
| Cc1ccccc1NC(=O)Nc1ccc(CC(=O)Nc2ccc3c(c2)CN(CCC(=O)O)C(=O)CN3CCN2CCOCC2)cc1 [BX69] | 31.5 nM |
| COCCCN1CC(=O)N(CCC(=O)O)Cc2cc(NC(=O)Cc3ccc(NC(=O)Nc4ccccc4C)cc3)ccc21 [BX70] | 30.5 nM |
| Cc1ccccc1NC(=O)Nc1ccc(CC(=O)Nc2ccc3c(c2)CN(CCC(=O)O)C(=O)CN3CCC(=O)O)cc1 [BX71] | 28.5 nM |
| CCOC(=O)CCN1CC(=O)N(CCC(=O)O)Cc2cc(NC(=O)Cc3ccc(NC(=O)Nc4ccccc4C)cc3)ccc21 [BX72] | 12.5 nM |
| Cc1ccccc1NC(=O)Nc1ccc(NC(=O)C2CCCN2C(=O)CCCCC(=O)O)cc1 (centres unmarked) [CX1] | 1350 nM |
| Cc1ccccc1NC(=O)Nc1ccc(NC(=O)[C@@H]2CCCN2C(=O)NCCCC(=O)O)cc1 [CX2] | 8940 nM |
| Cc1ccccc1NC(=O)Nc1ccc(NC(=O)[C@@H]2CCCN2C(=O)NCCC(=O)O)cc1 [CX7] | 190 nM |
| Cc1ccccc1NC(=O)Nc1ccc(NC(=O)[C@@H]2CCCN2C(=O)CCCC(=O)O)cc1 [CX8] | 480 nM |

| SMILES | IC50 |
| --- | --- |
| Cc1ccccc1NC(=O)Nc1ccc(NC(=O)[C@@H]2CCCN2C(=O)CC[C@@H](C)CC(=O)O)cc1 [CX9] | 332 nM |
| Cc1ccccc1NC(=O)Nc1ccc(NC(=O)[C@@H]2CCCN2C(=O)CC(C)CC(=O)O)cc1 (some centres unmarked) [CX10] | 258 nM |
| Cc1ccccc1NC(=O)Nc1ccc(NC(=O)[C@@H]2CCCN2C(=O)CC(C)CCC(=O)O)cc1 (some centres unmarked) [CX11] | 144 nM |
| Cc1ccccc1NC(=O)Nc1ccc(NC(=O)[C@@H]2CSCN2C(=O)CCCCC(=O)O)cc1 [CX12] | 63.5 nM |
| Cc1ccccc1NC(=O)Nc1ccc(NC(=O)CN(CCC(C)C)C(=O)CCCCC(=O)O)cc1 [CX13] | 52.5 nM |
| O=C(O)CCNC(=O)[C@@H]1CCCN(C(=O)Cc2ccc(NC(=O)Nc3ccccc3)cc2)C1 [MX1] | 872 nM |
| COc1ccc(CNC(=O)C2=C(C(=O)N[C@@H](CC(=O)O)c3ccc(OC)cc3)CCC2)cc1 [MX2] | 250 nM |
| Cc1ccccc1NC(=O)Nc1ccc(CC(=O)Nc2cccc(S(=O)(=O)NC(C)CC(=O)O)c2)cc1 (centres unmarked) [RX2] | 10600 nM |
| Cc1ccccc1NC(=O)Nc1ccc(CC(=O)Nc2cccc(OCCCCC(=O)O)c2)cc1 [RX4] | 4460 nM |
| Cc1ccccc1NC(=O)Nc1ccc(CC(=O)Nc2cccc(S(=O)(=O)NCCC(=O)O)c2)cc1 [RX5] | 3810 nM |
| Cc1ccccc1NC(=O)Nc1ccc(CC(=O)Nc2cccc(OCCC(C)C(=O)O)c2)cc1 (centres unmarked) [RX6] | 2590 nM |
| COc1ccc(NC(=O)Cc2ccc(NC(=O)Nc3ncccc3C)cc2)cc1OCCCC(=O)O [RX7] | 2300 nM |
| Cc1ccccc1NC(=O)Nc1ccc(CC(=O)Nc2cccc(CN(CCC(=O)O)C(=O)Cc3ccccc3)c2)cc1 [RX8] | 2250 nM |
| Cc1ccccc1NC(=O)Nc1ccc(CC(=O)Nc2cc(OCCCC(=O)O)ccc2C(C)C)cc1 [RX10] | 2040 nM |
| Cc1ccccc1NC(=O)Nc1ccc(CC(=O)NCc2cccc(OCC(=O)O)c2)cc1 [RX11] | 1140 nM |
| Cc1ccccc1NC(=O)Nc1ccc(NC(=O)Nc2cccc(OCCCC(=O)O)c2)cc1 [RX13] | 686 nM |
| Cc1ccccc1NC(=O)Nc1ccc(CC(=O)NCc2cccc(OCCCC(=O)O)c2)cc1 [RX14] | 652 nM |
| Cc1ccccc1NC(=O)Nc1ccc(CC(=O)Nc2cccc(NCCC(=O)O)c2)cc1 [RX15] | 650 nM |
| Cc1ccccc1NC(=O)Nc1ccc(CC(=O)Nc2cc(OCCCC(=O)O)cc(OCCC(C)C)c2)cc1 [RX16] | 574 nM |
| Cc1ccccc1NC(=O)Nc1ccc(CC(=O)Nc2ccc(C(=O)O)c(OCCCC(=O)O)c2)cc1 [RX17] | 406 nM |

| SMILES | IC50 |
| --- | --- |
| Cc1ccccc1NC(=O)Nc1ccc(CC(=O)Nc2cccc(CN(CCC(=O)O)C(=O)c3ccccc3)c2)cc1 [RX18] | 350 nM |
| Cc1ccccc1NC(=O)Nc1ccc(CC(=O)Nc2cccc(OCCC(=O)O)c2)cc1 [RX19] | 317 nM |
| CC(=O)N(CCCC(=O)O)Cc1cccc(NC(=O)Cc2ccc(NC(=O)Nc3ccccc3C)cc2)c1 [RX20] | 250 nM |
| Cc1ccccc1NC(=O)Nc1ccc(CC(=O)Nc2cccc(OC/C=C/C(=O)O)c2)cc1 [RX21] | 285 nM |
| COC(=O)CCCOc1cc(NC(=O)Cc2ccc(NC(=O)Nc3ccccc3C)cc2)cc(OCCCC(=O)O)c1 [RX22] | 157 nM |
| Cc1ccccc1NC(=O)Nc1ccc(CC(=O)Nc2cccc(OCCCC(=O)O)c2)cc1 [RX23] | 144 nM |
| Cc1ccccc1NC(=O)Nc1ccc(CC(=O)Nc2ccc(C)c(OCCCC(=O)O)c2)cc1 [RX24] | 855 nM |
| COc1cc(NC(=O)Cc2ccc(NC(=O)Nc3ccccc3C)cc2)cc(OCCCC(=O)O)c1 [RX26] | 77.7 nM |
| CCOc1cc(NC(=O)Cc2ccc(NC(=O)Nc3ccccc3C)cc2)cc(OCCCC(=O)O)c1 [RX27] | 50 nM |
| COc1ccc([C@H](CC(=O)O)NC(=O)C(CC(=O)Nc2ccc(NC(=O)c3ccccc3)cc2)CC(C)C)cc1OC (some centres unmarked) [SX3] | 165 nM |
| COc1ccc(C(CC(=O)O)NC(=O)C(CC(=O)NCc2ccccc2)CC(C)C)cc1 (centres unmarked) [SX6] | 6750 nM |
| Cc1ccccc1NC(=O)Nc1ccc(NC(=O)CC(CC(C)C)C(=O)N[C@@H](CC(=O)O)CN2CCOCC2)cc1 (some centres unmarked) [SX7] | 5980 nM |
| COc1ccc([C@H](CC(=O)O)NC(=O)C(C)CC(=O)Nc2ccc(NC(=O)Nc3ccccc3C)cc2)cc1OC (some centres unmarked) [SX9] | 5120 nM |
| COc1ccc(C(CC(=O)O)NC(=O)C(CC(=O)Nc2ccc(NC(=O)Nc3ccccc3C)cc2)CC(C)C)cc1 (centres unmarked) [SX13] | 3490 nM |
| COc1ccc([C@H](CC(=O)O)NC(=O)C(CC(=O)Nc2ccc(CCCc3ccccc3)cc2)CC(C)C)cc1OC (some centres unmarked) [SX14] | 8240 nM |
| COc1ccc([C@H](CC(=O)O)NC(=O)C(CC(=O)Nc2ccc(C(N)=O)cc2)CC(C)C)cc1OC (some centres unmarked) [SX15] | 3000 nM |
| COc1ccc([C@H](CC(=O)O)NC(=O)C(N)CC(=O)Nc2ccc(NC(=O)Nc3ccccc3C)cc2)cc1OC (some centres unmarked) [SX19] | 1940 nM |
| COc1ccc(C(CC(=O)O)NC(=O)C(CC(=O)Nc2ccc(NC(=O)Nc3ccccc3)cc2)CC(C)C)cc1 (centres unmarked) [SX23] | 1330 nM |

same assay, conditions: qualitative statement

| SMILES | VLA-4 inhibitory activity |
| --- | --- |
| Cc1ccccc1NC(=O)Nc1ccc(NC(=O)CN(C)C(=O)CN(CCC(=O)O)C(=O)c2ccccc2)cc1 [Compound A] | having VLA-4 inhibitory activity |
